# In US20200003760A1, “IN-VITRO METHODS FOR CLASSIFYING DRUGS ACCORDING TO THEIR POTENTIAL TO CAUSE LIVER CELL INJURY” (Board of Trustees of Michigan State University, priority 2018, published 2020):
# Where two headings read alike, the source gives them in different places.
# Assays:
# [1] = Logistic regression classification model: probability that a drug is associated with IDILI; set-up: species or system human; settings: for Estimated probability: probability that drug is associated with IDILI, covariates Deltadiff, EC50 VEH, EC50 TNF, Delta VEH, Cmax, optimal cutoff 0.46
# Text: Classification modeling using defined covariates. In the second phase of analysis, classification models were developed using logistic regression with covariates as independent variables in the analysis and known IDILI classification as the dependent variable. A model selection process was used to determine if a covariate or set of covariates is associated with IDILI liability. Covariates were first evaluated individually to determine how well a particular covariate classified drugs according to IDILI liability, and then covariates were evaluated in combination. Combinations of covariates were selected to maximize the ability of the model to distinguish between drugs associated or not with IDILI. Specifically, covariates that describe changes in efficacy (Delta, Deltadiff, etc.) were paired with covariates that describe changes in potency (EC50, EC10, R10, etc.) to find covariate combinations that led to models that most accurately discriminated between drugs that are and are not associated with IDILI. […] The logistic regression models follow the equation: […]
# where ŷi is the calculated (predicted) probability that drug i with a vector of covariates xi is associated with IDILI. The β coefficients (β0, the regression intercept; and βi, the regression slopes for model covariates, xi) were derived from the logistic regression models using 1) combinations of the covariates (xi) generated by concentration-response modeling for each of the 24 drugs evaluated in this study, and 2) the true IDILI classification for the dependent variable yi (i.e., 1 for IDILI+drugs and 0 for IDILI-drugs). […] This occurs when a covariate almost perfectly separates observations into the appropriate categories. […] When separation or quasi-complete separation occurs, use of the standard method (i.e., maximum likelihood estimation) provides biased, unreliable estimates of βi.
# Receiver operating characteristic (ROC) analysis. In the third phase of the statistical approach, the classification models, generated as logistic regression models using single covariates or combinations of covariates, were evaluated by ROC analysis to determine which model and corresponding sets of covariates led to the most accurate classification of drugs according to their potential to cause IDILI. An ROC curve was created for each model by graphing the true positive rate (sensitivity; i.e., proportion of drugs correctly classified as associated with IDILI) against the false positive rate (1-specificity; i.e., proportion of drugs incorrectly classified as associated with IDILI) at various probability cutoff thresholds (k). […] An area under the curve (AUC) and confidence interval was computed for each ROC curve (where each logistic regression model has one ROC curve). […] Corresponding to each ROC curve is an optimal threshold value (k*), the threshold yielding the highest point of accuracy on the curve (i.e., the point nearest the point […] on the curve). Thus, each ROC curve has a corresponding AUC and an optimal cutoff (k*) that corresponds to the highest point of accuracy on that ROC curve.
# [2] = cited from earlier work
# HepG2 cells = assay: Drug/cytokine-induced cytotoxicity (% LDH release) concentration-response in HepG2 cells; format: cell-based, human; set-up: key to Deltadiff: LDH release percentage points (drug/TNF Delta minus drug/VEH Delta); settings: for R10 IFN: with IFN; for R10 TNF: with TNF; for R10 TNF/IFN / EC10 TNF/IFN: with TNF and IFN; for Deltadiff: Delta of drug/TNF curve minus Delta of drug/VEH curve (LDH percentage); for TNF change: D10TNF − D10VEH; for EC10 TNF/IFN / EC10 TNF / EC10 IFN: value corresponding to 10% of Delta; for EC10 TNF/IFN / EC10 TNF / EC10 / EC10 IFN: NA = no significant increase; for cytotoxic interaction of drug with TNF: TNF 10 ng/ml; for effect of IFN coexposure on the drug/TNF cytotoxic interaction: TNF and IFN 10 ng/ml each; for cytotoxicity of drug on its own (LDH release): absence of cytokines; for EC10 TNF: with TNF 10 ng/ml; for EC10: value corresponding to 10% of Delta (max-min); for EC10 IFN: with IFN 10 ng/ml
# Description: Cells were passed or used for experiments when they reached approximately 80% confluence. Cells were used at passage 6-16.
# HepG2 cells were plated at a density of 4×10^4 cells per well in black-walled, 96-well, tissue culture plates and were allowed to attach overnight before being treated with compounds. Drugs were reconstituted in vehicles consisting of sterile water or DMSO (concentration less than 0.5%). Cells were treated with various concentrations of the drug or its vehicle (control) alone or in combination with the cytokines TNF (10 ng/ml) and/or IFN (10 ng/ml) or their PBS vehicle (VEH). Cytotoxicity was evaluated as lactate dehydrogenase (LDH) activity released from the cells into culture medium using the Homogeneous Membrane Integrity Assay kit from Promega (Madison, Wis.).
# Concentration-response curves were generated for 24 drugs, 14 of which are associated with human IDILI and 10 of which are not. […] This was necessary because four-parameter logistic modeling used in the statistical analysis requires well defined, sigmoidal concentration-response curves. Cells were exposed to drug/cytokine combinations for 24 hours. For analysis of drug concentration-response data, concentrations of each drug were expressed as a fraction of its Cmax.
# Defining covariates: four-parameter logistic model. In the first phase, variables (potential covariates) for use in the classification analysis were defined from the analysis of drug concentration-response data. Initially, a one-way analysis of variance (ANOVA) was used as an omnibus test to determine if a particular treatment (e.g. drug alone or in combination with TNF and/or IFN) caused a significant change in LDH release relative to baseline (i.e., LDH release in the absence of drug, hereafter designated “min”). The criterion for significance for the ANOVA was set at α=0.01. A 1% level of significance was used to rule out more vigorously marginal relationships between concentration and response.
# where LDH(x) is the percentage of LDH released at a given concentration x; x=[drug]/Cmax; min=the % LDH release at 0 drug concentration (i.e., baseline); and max=the maximal LDH response (i.e., maximum % LDH release).
# where D10 is a categorical variable related to reaching a threshold LDH response above which a drug is classified as positively associated with IDILI. D10 is defined as 0 if Delta<10% LDH release and as 1 if Delta≥10% LDH release.
# The base covariate R10 represents the [drug]/Cmax value associated with an increase in 10 LDH percentage points above min for a particular treatment condition and was determined by the equation:
# R10 was considered to be 0 when the Delta<10% LDH (i.e. when D10=0).
# EC50 quotient, EC10 quotient and R10 quotient represent the ratio between the EC50, EC10 or R10 of the drug/cytokine concentration-response curve and the respective value for the drug/VEH concentration-response curve. In some instances, the value derived from this calculation is indeterminate (i.e. when the denominator=0). In order to incorporate the quotient values into the classification models described below, the categorical variable “Q” was used to eliminate the possibility of the quotient being indeterminate. Q is defined as 0 if Delta VEH and/or Delta cytokine is <10% LDH and 1 if both Delta VEH and Delta cytokine are ≥10% LDH. […] The same condition was applied for calculation of EC10 quotient and R10 quotient.
# Deltadiff represents the difference between the Delta of the drug/cytokine concentration-response curve and the Delta of the drug/VEH curve. In other words, Deltadiff=(Delta cytokine)−(Delta VEH). FIG. 1 graphically illustrates several of the covariates defined above. […] In addition to the covariates derived from the concentration-response curves, the maximal therapeutic plasma drug concentration (Cmax) in human patients was used in some models (Table 1).
# [3] = cited from earlier work; for True classification: IDILI in human patients; for IDILI liability: criteria of Xu et al. (2008)
# [4] = 10 percent increase in LDH response above min, 0 when D10 = 0, drug alone (VEH)
# [5] = 10 percent increase in LDH response above min, 0 when D10 = 0
# [6] = Homo sapiens, HepG2, categorical, Delta threshold 10 LDH percentage points, drug alone (VEH), read-out: D10
# [7] = Homo sapiens, HepG2, maximal LDH response, drug alone (VEH), 24 h, read-out: max
# [8] = maximal plasma concentration after pharmacologic dosing in human patients
SMILES,R10 (HepG2 cells; [4]),R10 IFN (HepG2 cells; [5]),R10 TNF (HepG2 cells; [5]),R10 TNF/IFN (HepG2 cells; [5]),Deltadiff (HepG2 cells),Emax (HepG2 cells; [6]) [%],Emax (HepG2 cells; [7]) [%],TNF change (HepG2 cells; categorical),Estimated probability [1],True classification [3],IDILI liability [3],"Cmax [2, 8] [µM]",EC10 TNF/IFN (HepG2 cells),"cytotoxic interaction of drug with TNF (HepG2 cells; HepG2, 24 h)","cytotoxicity of drug on its own (LDH release) (HepG2 cells; HepG2, 24 h)",EC10 TNF (HepG2 cells),also measured
CC(C)(O)C(=O)Nc1ccc([N+](=O)[O-])c(C(F)(F)F)c1 [2-hydroxyflutamide],,,,,,,,,,,,,,,,,calculated probability for association with IDILI ([1]; best-performing classification model): 0.999; Cmax ([2]; metabolite of flutamide in vivo): 5.74 µM
CC(=O)Oc1ccccc1C(=O)O [Aspirin],0 [drug]/Cmax,0 [drug]/Cmax,0 [drug]/Cmax,0 [drug]/Cmax,0,< 10,11,0,0.1445,IDILI−,IDILI−,47,,,,,
CC[C@H]1OC(=O)[C@H](C)[C@@H](O[C@H]2C[C@@](C)(OC)[C@@H](O)[C@H](C)O2)[C@H](C)[C@@H](O[C@@H]2O[C@H](C)C[C@H](N(C)C)[C@H]2O)[C@](C)(O)C[C@@H](C)CN(C)[C@H](C)[C@@H](O)[C@]1(C)O [Azithromycin],0 [drug]/Cmax,0 [drug]/Cmax,0 [drug]/Cmax,333.9 [drug]/Cmax,0,< 10,11.6,0,0.1276,IDILI−,IDILI−,0.5,59.2 [drug]/Cmax,,,,"synergy with cytokines to kill HepG2 cells (HepG2 cells; HepG2, 24 h, TNF and/or IFN): modestly cytotoxic in the presence of TNF/IFN"
Nc1c(CC(=O)O)cccc1C(=O)c1ccc(Br)cc1 [Bromfenac],0 [drug]/Cmax,0 [drug]/Cmax,40.6 [drug]/Cmax,28.9 [drug]/Cmax,22.6,< 10,13.8,1,0.9397,IDILI+,IDILI+,13.5,18.9 [drug]/Cmax,synergized with TNF to cause cytotoxicity,caused no cytotoxicity on their own,22.6 [drug]/Cmax,"effect of IFN coexposure on the drug/TNF cytotoxic interaction (HepG2 cells; HepG2, 24 h): coexposure to IFN enhanced the cytotoxic interaction"
CN(C)CCCN1c2ccccc2Sc2ccc(Cl)cc21 [Chlorpromazine],36.0 [drug]/Cmax,34.8 [drug]/Cmax,31.5 [drug]/Cmax,25.3 [drug]/Cmax,−15.3,,111,,0.961,IDILI+,IDILI+,0.84,24.1 [drug]/Cmax,TNF significantly enhanced the cytotoxicity,statistically significant increase in LDH release,30.5 [drug]/Cmax,"effect of IFN coexposure on the drug/TNF cytotoxic interaction (HepG2 cells; HepG2, 24 h): coexposure to IFN enhanced the cytotoxic interaction; D10 (LDH rise of at least 10 points, yes/no) (HepG2 cells; Homo sapiens, HepG2, categorical, Delta threshold 10 LDH percentage points, drug alone (VEH)): > 10%; EC10 (HepG2 cells; drug alone (VEH)): 35.8 [drug]/Cmax; EC10 IFN (HepG2 cells): 34.1 [drug]/Cmax"
COc1ccc2cc([C@H](C)C(=O)O)ccc2c1 [Naproxen],60.5 [drug]/Cmax,65.9 [drug]/Cmax,24.3 [drug]/Cmax,18.4 [drug]/Cmax,−9.3,> 10,102,,0.8589,IDILI+,,,17.3 [drug]/Cmax,,,23.6 [drug]/Cmax,EC10 (HepG2 cells; drug alone (VEH)): 59.8 [drug]/Cmax; EC10 IFN (HepG2 cells): 64.8 [drug]/Cmax
CS(=O)(=O)Nc1ccc([N+](=O)[O-])cc1Oc1ccccc1 [Nimesulide],,0 [drug]/Cmax,32.0 [drug]/Cmax,33.5 [drug]/Cmax,92.3,,14.6,1,1,,,21.1,33.2 [drug]/Cmax,synergized with TNF to cause cytotoxicity,caused no cytotoxicity on their own,31.8 [drug]/Cmax,"R10 (HepG2 cells): 0 [drug]/Cmax; Emax (HepG2 cells; Homo sapiens, HepG2, read-out: D10): < 10%"
